pEC50: −log10 of the molar value.
Key:
[1] = Clearance in cannulated Sprague-Dawley rat plasma at 5 mg/kg, iv administered as 10 mins infusion measured up to 24 hrs post dose by LC/MS/MS analysis; assay type: ADME, organism-based
[2] = Oral bioavailability in cannulated Sprague-Dawley rat plasma at 15 mg/kg administered via gavage measured up to 24 hrs post dose by LC/MS/MS analysis; assay type: ADME, organism-based
[3] = Half life in cannulated Sprague-Dawley rat plasma at 5 mg/kg, iv administered as 10 mins infusion by LC/MS/MS analysis; assay type: ADME, organism-based
[4] = Drug uptake in cannulated Sprague-Dawley rat liver at 15 mg/kg administered via oral gavage measured at 24 hrs post dose by LC/MS/MS analysis; assay type: ADME, organism-based; conditions: read-out: Drug uptake
[5] = AUC in cannulated Sprague-Dawley rat plasma at 15 mg/kg administered via oral gavage measured up to 24 hrs post dose by LC/MS/MS analysis; assay type: ADME, organism-based; design: dose 15 mg/kg, time < 24 hr, route oral
[6] = Cardiotoxicity in rabbit heart assessed as change in sinoatrial node recovery time at 10 uM perfused for 20 mins measured for 1 min by electrophysiology method relative to control; assay type: toxicity, tissue-based, Oryctolagus cuniculus
[7] = test system: Hepatitis C virus; assay: Antiviral activity against HCV genotype 1b Con1 expressing NS3 protease infected in human Huh7.5 cells assessed as reduction in viral RNA replication by luciferase reporter gene assay; assay type: functional, cell-based, Hepacivirus hominis; conditions: genotype 1b Con1, Huh-7
[8] = Cardiotoxicity in rabbit heart assessed as change in heart rate at 10 uM perfused for 20 mins measured for 1 min by electrophysiology method relative to control; assay type: toxicity, tissue-based, Oryctolagus cuniculus
[9] = Half life in human liver microsomes; assay type: ADME
[10] = Cardiotoxicity in rabbit heart assessed as change in heart rate at 10 uM perfused for 60 mins measured every 10 mins during perfusion by electrophysiology method relative to control; assay type: toxicity, tissue-based, Oryctolagus cuniculus; conditions: 1 h
[11] = Cardiotoxicity in rabbit heart assessed as change in sinoatrial node recovery time at 10 uM perfused for 60 mins measured every 10 mins during perfusion by electrophysiology method relative to control; assay type: toxicity, tissue-based, Oryctolagus cuniculus; conditions: 1 h

SMILES | clearance [1] | bioavailability [2] | half-life [3] | concentration at 24 h [4] | AUC at 24 h [5] | pEC50 [7] | half-life [9] | Activity [6] | Activity [8] | Activity [10] | Activity [11]
COc1cnc(O[C@@H]2C[C@@H](C(=O)N[C@]3(C(=O)NS(=O)(=O)C4CC4)C[C@H]3C3CC3)N(C(=O)[C@@H](NC(=O)OC(C)(C)C(F)(F)F)C(C)(C)C)C2)c2cc(Cl)ccc12 | 4.7 mL/min/kg | 35.5% | 14 h | 55.3 µM | 19.1 µM·h | 8.72 | 2.13 h | 50.4% | -14.3% |  | 
COc1cnc(O[C@@H]2C[C@@H](C(=O)N[C@]3(C(=O)NS(=O)(=O)C4CC4)C[C@H]3C3CC3)N(C(=O)[C@@H](NC(=O)O[C@H](C)C(F)(F)F)C(C)(C)C)C2)c2ccc(Cl)cc12 | 30.2 mL/min/kg | 81% | 10 h | 30.7 µM | 7.9 µM·h | 8.47 | 2.37 h |  |  |  | 
COc1cnc(O[C@@H]2C[C@@H](C(=O)N[C@]3(C(=O)NS(=O)(=O)C4CC4)C[C@H]3C3CC3)N(C(=O)[C@@H](NC(=O)OC(C)C)C(C)(C)C)C2)c2cc(Cl)ccc12 |  |  |  |  |  | 7.18 | 0.583 h |  |  |  | 
COc1cnc(O[C@@H]2C[C@@H](C(=O)N[C@]3(C(=O)NS(=O)(=O)C4CC4)C[C@H]3C3CC3)N(C(=O)[C@@H](NC(=O)OC(C)(C)C)C(C)(C)C)C2)c2cc(Cl)ccc12 | 5 to 5.2 mL/min/kg | 44.2% | 10 h | 35.7 µM | 19.6 µM·h | 7.74 | 1.38 h | 18.5% | -3.5% | -7.5% | 20%
CC[C@@H](C)[C@H](NC(=O)O[C@H](C)C(F)(F)F)C(=O)N1C[C@H](Oc2ncc(OC)c3ccc(Cl)cc23)C[C@H]1C(=O)N[C@]1(C(=O)NS(=O)(=O)C2CC2)C[C@H]1C1CC1 |  |  |  |  |  | 8.20 | 1.63 h |  |  |  | 
C=C[C@@H]1C[C@]1(NC(=O)[C@@H]1C[C@@H](Oc2nccc3cc(OC)ccc23)CN1C(=O)[C@@H](NC(=O)OC(C)(C)C)C(C)(C)C)C(=O)NS(=O)(=O)C1CC1 |  |  |  | 0.74 µM | 14.1 µM·h |  | 0.55 h | 290% | -25% |  | 
COc1cnc(O[C@@H]2C[C@@H](C(=O)N[C@]3(C(=O)NS(=O)(=O)C4CC4)C[C@H]3C(C)C)N(C(=O)[C@@H](NC(=O)OC(C)(C)C)C(C)(C)C)C2)c2cc(Cl)ccc12 |  |  |  |  |  | < 7.00 | 1.38 h |  |  |  | 
COc1cnc(O[C@@H]2C[C@@H](C(=O)N[C@]3(C(=O)NS(=O)(=O)C4CC4)C[C@H]3C3CC3)N(C(=O)[C@@H](NC(=O)OCC(F)(F)F)C(C)(C)C)C2)c2cc(Cl)ccc12 |  |  |  |  |  | 7.31 |  |  |  |  | 
COc1cnc(O[C@@H]2C[C@@H](C(=O)N[C@]3(C(=O)NS(=O)(=O)C4CC4)C[C@H]3C3CC3)N(C(=O)[C@@H](NC(=O)OC3CCC3)C(C)(C)C)C2)c2cc(Cl)ccc12 |  |  |  |  |  | 7.79 | 0.967 h |  |  |  | 
COc1cnc(O[C@@H]2C[C@@H](C(=O)N[C@]3(C(=O)NS(=O)(=O)C4CC4)C[C@H]3C3CC3)N(C(=O)[C@@H](NC(=O)O[C@H](C)C(F)(F)F)C(C)(C)C)C2)c2cccc(Cl)c12 | 40.4 to 40.7 mL/min/kg | 122% | 10.9 h | 49.3 µM | 8.6 µM·h | 8.74 | 3.33 h | 53% | -19% |  | 
COc1cnc(O[C@@H]2C[C@@H](C(=O)N[C@]3(C(=O)NS(=O)(=O)C4CC4)C[C@H]3C3CC3)N(C(=O)[C@@H](NC(=O)OC3CCCC3)C(C)(C)C)C2)c2cc(Cl)ccc12 |  |  |  |  |  | 7.70 | 0.65 h |  |  |  | 
CCC(CC)[C@H](NC(=O)O[C@H](C)C(F)(F)F)C(=O)N1C[C@H](Oc2ncc(OC)c3ccc(Cl)cc23)C[C@H]1C(=O)N[C@]1(C(=O)NS(=O)(=O)C2CC2)C[C@H]1C1CC1 |  |  |  |  |  | 8.14 | 2 h |  |  |  | 
COc1cnc(O[C@@H]2C[C@@H](C(=O)N[C@]3(C(=O)NS(=O)(=O)C4CC4)C[C@H]3C3CC3)N(C(=O)[C@@H](NC(=O)O[C@H](C)C(F)(F)F)C(C)C)C2)c2cc(Cl)ccc12 |  |  |  |  |  | 8.10 | 2.58 h |  |  |  | 
COc1cnc(O[C@@H]2C[C@@H](C(=O)N[C@]3(C(=O)NS(=O)(=O)C4CC4)C[C@H]3C3CC3)N(C(=O)[C@@H](NC(=O)O[C@H](C)C(F)(F)F)C3CC3)C2)c2cc(Cl)ccc12 |  |  |  |  |  | 7.88 | 3.33 h |  |  |  | 

Continued by rising pEC50 [7], values first:

clearance [1] | bioavailability [2] | half-life [3] | concentration at 24 h [4] | AUC at 24 h [5] | pEC50 [7] | half-life [9] | SMILES | Activity [6] | Activity [8] | Activity [10] | Activity [11]
 |  |  |  |  | 6.84 | > 3.33 h | COc1cnc(O[C@@H]2C[C@@H](C(=O)N[C@]3(C(=O)NS(=O)(=O)C4CC4)C[C@H]3C3CC3)N(C(=O)[C@@H](NC(=O)O[C@@H](C)C(F)(F)F)C(C)(C)C)C2)c2cc(Cl)ccc12 |  |  |  | 
 |  |  |  |  | 7.24 | 2 h | COc1cnc(O[C@@H]2C[C@@H](C(=O)N[C@]3(C(=O)NS(=O)(=O)C4CC4)C[C@H]3C3CC3)N(C(=O)[C@@H](NC(=O)OC(C)(C)C(F)F)C(C)(C)C)C2)c2cc(Cl)ccc12 |  |  |  | 
18 mL/min/kg | 43% | 12 h | 40 µM | 6.9 µM·h | 7.80 | 0.567 h | CC[C@@H]1C[C@]1(NC(=O)[C@@H]1C[C@@H](Oc2ncc(OC)c3ccc(Cl)cc23)CN1C(=O)[C@@H](NC(=O)OC(C)(C)C)C(C)(C)C)C(=O)NS(=O)(=O)C1CC1 | 26% | -12% | -35% | 148%
 |  |  |  |  | 7.90 | 0.0833 h | C=C(C)[C@@H]1C[C@]1(NC(=O)[C@@H]1C[C@@H](Oc2ncc(OC)c3ccc(Cl)cc23)CN1C(=O)[C@@H](NC(=O)OC(C)(C)C)C(C)(C)C)C(=O)NS(=O)(=O)C1CC1 |  |  |  | 
 |  |  |  |  | 8.07 | 1.85 h | COc1cnc(O[C@@H]2C[C@@H](C(=O)N[C@]3(C(=O)NS(=O)(=O)C4CC4)C[C@H]3C3CC3)N(C(=O)[C@@H](NC(=O)O[C@H](C)C(F)(F)F)C3CCC3)C2)c2cc(Cl)ccc12 |  |  |  | 
 |  |  |  |  | 8.43 | 0.4 h | COc1cnc(O[C@@H]2C[C@@H](C(=O)N[C@]3(C(=O)NS(=O)(=O)C4CC4)C[C@H]3C3CC3)N(C(=O)[C@@H](NC(=O)OC3(C)CCCC3)C(C)(C)C)C2)c2cc(Cl)ccc12 |  |  |  | 
40.4 mL/min/kg | 42.4% | 5.5 h | 24 µM | 6.3 µM·h | 8.52 | 2 h | COc1cnc(O[C@@H]2C[C@@H](C(=O)N[C@]3(C(=O)NS(=O)(=O)C4CC4)C[C@H]3C3CC3)N(C(=O)[C@@H](NC(=O)O[C@H](C)C(F)(F)F)C(C)(C)C)C2)c2cc(Cl)cc(Cl)c12 |  |  |  | 
14 mL/min/kg | 3.5% | 3 h | 19.2 µM | 0.79 to 0.794 µM·h | 8.62 | 1.77 h | COc1ccc2c(O[C@@H]3C[C@@H](C(=O)N[C@]4(C(=O)NS(=O)(=O)C5CC5)C[C@H]4C4CC4)N(C(=O)[C@@H](NC(=O)O[C@H](C)C(F)(F)F)C(C)(C)C)C3)nc(OC)cc2c1 |  | -58% |  | 

Reference: ChEMBL document CHEMBL3861981 (J Med Chem, 2016)
